Reference: patent US7671112B2, “Method of making fluoropolymer dispersion” (priority 2005, dated 2010)
Marks after values point to notes of the source that are not given here.

Test: Determination of bio-accumulation: urinary clearance pharmacokinetic study in rats
Assay type: in vivo, male Sprague Dawley rats
Settings: oral gavage; for Compound-related Effects: clinical observation and gross necropsy 96 hours post-dose; for T½: elimination via urine, exponential least squares curve fitting of concentration in urine
[1] = 73 micro Moles per kg body weight
[2] = 73 micro Moles per kg body weight, recovered in urine up to 96 h
[3] = 73 micro Moles per kg, based on elimination of the major metabolite C3F7—O—CHFCOO−, no parent compound in urine

T½ [1] [h] | % Recovery (96 h) [2] [%] | % Recovery (96 h) [3] | T½ (h) [3] | SMILES | Compound-related Effects [1]
95 | 5 |  |  | N.O=C(O)C(F)(F)OC(F)(F)C(F)(OC(F)(F)C(F)(F)C(F)(F)F)C(F)(F)F (centres unmarked) [Compound C-3, C3F7—O—CF(CF3)—CF2—O—CF2—COONH4, reference compound] | Hepatomegaly
11 | 95 |  |  | N.O=C(O)C(F)OC(F)(F)C(F)(F)C(F)(F)OC(F)(F)F (centres unmarked) [Compound 12, CF3—O—CF2—CF2—CF2—O—CHF—COONH4] | 
 |  | 65* % | 13* h | N.O=C(O)COC(F)(F)C(F)OC(F)(F)C(F)(F)C(F)(F)F (centres unmarked) [Compound 16, C3F7—O—CFH—CF2—O—CH2—COONH4] | 
24 | 32 |  |  | N.O=C(O)C(F)(F)C(F)(F)C(F)(F)C(F)(F)C(F)(F)OC(F)C(F)(F)F (centres unmarked) [Compound 14, CF3—CFH—O—(CF2)5—COONH4] | Hepatomegaly
11 | 94 |  |  | N.O=C(O)C(F)(F)C(F)OC(F)(F)C(F)(F)C(F)(F)F (centres unmarked) [Compound 13, C3F7—O—CFH—CF2COONH4] | 
8 | 95 |  |  | N.O=C(O)C(F)(F)C(F)(F)C(F)(F)OC(F)C(F)(F)F (centres unmarked) [Compound 15, CF3—CFH—O—(CF2)3—COONH4] | 

Continued, compound first:

SMILES | T½ [1] [h] | % Recovery (96 h) [2] [%] | % Recovery (96 h) [3] | T½ (h) [3] | Compound-related Effects [1]
N.O=C(O)C(F)(F)OC(F)(F)OC(F)(F)OC(F)(F)F [Compound 3, CF3—OCF2—OCF2—OCF2—COONH4] | 12 | 100 |  |  | 
N.O=C(O)C(F)(F)OC(F)(F)C(F)(F)OC(F)(F)C(F)(F)F [Compound 10, C2F5—O—CF2—CF2—O—CF2—COONH4] | 10 | 99 |  |  | 
N.O=C(O)C(F)(F)OC(F)(F)C(F)(F)C(F)(F)OC(F)(F)F [Compound 4, CF3—(OCF2)3—OCF2—COONH4] |  | 50 |  |  | 
N.O=C(O)C(F)(F)C(F)(F)C(F)(F)C(F)(F)C(F)(F)C(F)(F)C(F)(F)F [Compound C-1, C7F15COONH4, reference compound] | ~550 | 6 |  |  | Hepatomegaly
N.O=C(O)C(F)(F)C(F)(F)OC(F)(F)F [Compound 6, CF3—O—CF2—CF2—COONH4] | 11 | 100 |  |  | 
N.O=C(O)C(F)(F)OC(F)(F)C(F)(F)C(F)(F)OC(F)(F)F [Compound 1, CF3—O—(CF2)3—O—CF2—COONH4] |  | 73 |  |  | 
N.O=C(O)C(F)(F)OC(F)(F)C(F)(F)C(F)(F)F [Compound 5, C3F7—O—CF2—COONH4] | 11 | 97 |  |  | 
N.O=C(O)C(F)(F)C(F)(F)OC(F)(F)C(F)(F)C(F)(F)C(F)(F)F [Compound 9, C4F9—O—CF2—CF2—COONH4] | 31 | 42 |  |  | Hepatomegaly
N.O=C(O)C(F)(F)C(F)(F)OC(F)(F)C(F)(F)F [Compound 7, C2F5—O—CF2—CF2—COONH4] | 10 | 100 |  |  | 
N.O=C(O)C(F)(F)OC(F)(F)OC(F)(F)F [Compound 2, CF3—OCF2—O—CF2—COONH4] | 12 | 96 |  |  | 
N.O=C(O)C(F)(F)C(F)(F)OC(F)(F)C(F)(F)C(F)(F)F [Compound 8, C3F7—O—CF2—CF2—COONH4] | 12 | 82 |  |  | 
N.O=C(O)C(F)(F)C(F)OC(F)(F)C(F)(F)C(F)(F)OC(F)(F)F (centres unmarked) [Compound 11, CF3—O—CF2—CF2—CF2—O—CHF—CF2—COONH4] | 12 | 84 |  |  | 
